Assay results taken from patent US10980809B2, “Urea-substituted aromatic ring-linked dioxane-quinazoline and -linked dioxane-quinoline compounds, preparation method therefor and use thereof” (BEIJING SCITECH-MQ PHARMACEUTICALS LIMITED, priority 2017, dated 2021).

Biological target: VEGFR-2 kinase (Homo sapiens (Human), UniProt P35968)
Experiment: Test of small molecule compounds for inhibiting the activity of VEGFR-2 kinase
Type: biochemical
Settings: class symbols A-D
Protocol: Test of Small Molecule Compounds for Inhibiting the Activity of VEGFR-2 Kinase
The test was carried out as follows:
2. 2.5 μl of the gradient-diluted compounds was taken with a transfer pipette to a 384-well plate,
3. Addition of enzyme: 5 μl of 2×VEGFR-2 kinase was taken with a transfer pipette to the corresponding reaction well of the 384-well plate, which was mixed and pre-reacted at room temperature for 30 min,
5. Negative control: 2.5 μl/well 4× substrate/ATP Mix and 7.5 μl 1× Kinase Assay Buffer were added to the wells of the 384-well plate,
Positive control: 2.5 μl/well 4× substrate/ATP Mix, 2.5 μl/well 1× Kinase Assay Buffer containing 4% DMSO, and 5 μl/well 2×VEGFR-2 solution were added to the 384-well plate. The final concentration of DMSO in the reaction system is […],
6. The mixture was mixed well and then centrifuged and reacted at room temperature in dark for 60 min,
9. The 384-well plate was placed into the Envision plate reader and the signal was detected using the appropriate program,

Sequence of VEGFR-2 kinase (P35968 20-1356): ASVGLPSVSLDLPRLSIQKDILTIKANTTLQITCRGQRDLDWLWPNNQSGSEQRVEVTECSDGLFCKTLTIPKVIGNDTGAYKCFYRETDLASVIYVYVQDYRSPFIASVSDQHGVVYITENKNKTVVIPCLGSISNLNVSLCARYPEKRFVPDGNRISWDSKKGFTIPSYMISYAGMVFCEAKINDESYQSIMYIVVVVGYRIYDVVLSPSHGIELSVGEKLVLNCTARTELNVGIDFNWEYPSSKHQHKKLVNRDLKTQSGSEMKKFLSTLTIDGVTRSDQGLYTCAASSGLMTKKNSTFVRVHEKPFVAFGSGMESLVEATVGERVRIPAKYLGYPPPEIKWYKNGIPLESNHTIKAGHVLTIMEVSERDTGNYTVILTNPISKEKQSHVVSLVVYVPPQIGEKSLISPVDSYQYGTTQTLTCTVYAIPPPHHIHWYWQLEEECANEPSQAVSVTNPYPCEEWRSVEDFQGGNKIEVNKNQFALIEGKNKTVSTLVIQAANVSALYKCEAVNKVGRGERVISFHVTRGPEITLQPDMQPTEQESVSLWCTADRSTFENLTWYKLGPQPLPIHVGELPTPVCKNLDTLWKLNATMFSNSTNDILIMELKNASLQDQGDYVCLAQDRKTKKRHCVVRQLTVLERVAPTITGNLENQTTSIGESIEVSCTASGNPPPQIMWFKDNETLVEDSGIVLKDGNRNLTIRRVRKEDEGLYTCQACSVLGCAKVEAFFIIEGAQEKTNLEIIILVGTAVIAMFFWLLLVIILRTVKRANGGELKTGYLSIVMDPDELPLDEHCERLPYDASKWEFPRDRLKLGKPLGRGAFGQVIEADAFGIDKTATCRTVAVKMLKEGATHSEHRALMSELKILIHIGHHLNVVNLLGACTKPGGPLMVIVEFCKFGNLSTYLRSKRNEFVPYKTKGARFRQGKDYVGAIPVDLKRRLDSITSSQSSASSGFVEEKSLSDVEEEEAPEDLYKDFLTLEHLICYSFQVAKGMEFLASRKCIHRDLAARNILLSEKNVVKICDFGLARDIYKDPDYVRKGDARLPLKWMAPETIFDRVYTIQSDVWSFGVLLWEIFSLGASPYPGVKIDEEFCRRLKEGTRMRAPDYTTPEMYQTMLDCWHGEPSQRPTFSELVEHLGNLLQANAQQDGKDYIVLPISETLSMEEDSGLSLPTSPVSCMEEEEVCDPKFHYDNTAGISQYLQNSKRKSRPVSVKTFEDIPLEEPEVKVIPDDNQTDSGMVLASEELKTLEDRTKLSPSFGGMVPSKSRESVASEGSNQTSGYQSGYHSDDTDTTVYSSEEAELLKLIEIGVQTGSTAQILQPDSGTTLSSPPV

| Structure (SMILES) | IC50 |
| --- | --- |
| COc1cc2ncnc(Nc3ccc(NC(=O)NC4CC4)cc3)c2c2c1OCCO2 [Example 1, 1-(4-((5-methoxy-2,3-dihydro-[1,4]dioxino[2,3-f]quinazolin-10-yl)amino)phenyl)-3-cyclopropylurea] | 50 to 500 nM |
| COc1cccc(NC(=O)Nc2ccc(Nc3ncnc4cc(OC)c5c(c34)OCCO5)cc2)c1 [Example 3, 1-(4-((5-methoxy-2,3-dihydro-[1,4]dioxino[2,3-f]quinazolin-10-yl)amino)phenyl)-3-(3-methoxyphenyl)urea] | 50 to 500 nM |
| COc1cc2ncnc(Nc3ccc(NC(=O)Nc4ccc(C(F)(F)F)cc4F)c(Cl)c3)c2c2c1OCCO2 [Example 12, 1-(2-chloro-4-((5-methoxy-2,3-dihydro-[1,4]dioxino[2,3-f]quinazolin-10-yl)amino)phenyl)-3-(2-fluoro-4-(trifluoromethyl)phenyl)urea] | < 50 nM |
| COc1cc2ncnc(Nc3ccc(NC(=O)Nc4ccc(Oc5ccccc5)cc4)c(Cl)c3)c2c2c1OCCO2 [Example 13, 1-(2-chloro-4-((5-methoxy-2,3-dihydro-[1,4]dioxino[2,3-f]quinazolin-10-yl)amino)phenyl)-3-(4-(phenoxy)phenyl)urea] | > 5000 nM |
| COc1cc2ncnc(Oc3ccc(NC(=O)Nc4ccccc4)c(Cl)c3)c2c2c1OCCO2 [Example 14, 1-(2-chloro-4-((5-methoxy-2,3-dihydro-[1,4]dioxino[2,3-f]quinazolin-10-yl)oxy)phenyl)-3-phenylurea] | < 50 nM |
| COc1cc2ncnc(Oc3ccc(NC(=O)NC(C)C)c(Cl)c3)c2c2c1OCCO2 [Example 15, 1-(2-chloro-4-((5-methoxy-2,3-dihydro-[1,4]dioxino[2,3-f]quinazolin-10-yl)oxy)phenyl)-3-isopropylurea] | < 50 nM |
| COc1cc2ncnc(Oc3ccc(NC(=O)Nc4ccc(F)cc4)c(Cl)c3)c2c2c1OCCO2 [Example 16, 1-(2-chloro-4-((5-methoxy-2,3-dihydro-[1,4]dioxino[2,3-f]quinazolin-10-yl)oxy)phenyl)-3-(4-fluorophenyl)urea] | < 50 nM |
| COc1cc2ncnc(Oc3ccc(NC(=O)Nc4ccc(F)cc4F)c(F)c3)c2c2c1OCCO2 [Example 21, 1-(2,4-difluorophenyl)-3-(2-fluoro-4-((5-methoxy-2,3-dihydro-[1,4]dioxino[2,3-f]quinazolin-10-yl)oxy)phenyl)urea] | < 50 nM |
| COc1cc2ncnc(Oc3ccc(NC(=O)NC4CC4)c(Cl)c3)c2c2c1OCCO2 [Example 22, 1-(2-chloro-4-((5-methoxy-2,3-dihydro-[1,4]dioxino[2,3-f]quinazolin-10-yl)oxy)phenyl)-3-cyclopropylurea] | < 50 nM |
| COc1cccc(NC(=O)Nc2ccc(Oc3ncnc4cc(OC)c5c(c34)OCCO5)c(Cl)c2)c1 [Example 24, 1-(3-chloro-4-((5-methoxy-2,3-dihydro-[1,4]dioxino[2,3-f]quinazolin-10-yl)oxy)phenyl)-3-(3-methoxyphenyl)urea] | < 50 nM |
| COc1cc(NC(=O)Nc2ccc(Oc3ncnc4cc(OC)c5c(c34)OCCO5)c(Cl)c2)ccn1 [Example 26, 1-(3-chloro-4-((5-methoxy-2,3-dihydro-[1,4]dioxino[2,3-f]quinazolin-10-yl)oxy)phenyl)-3-(2-methoxypyridin-4-yl)urea] | < 50 nM |
| COc1cc2ncnc(Nc3ccc(NC(=O)NC4CCCC4)c(Cl)c3)c2c2c1OCCO2 [Example 28, 1-(2-chloro-4-((5-methoxy-2,3-dihydro-[1,4]dioxino[2,3-f]quinazolin-10-yl)amino)phenyl)-3-cyclopentylurea] | 50 to 500 nM |
| COc1cc2ncnc(Nc3ccc(NC(=O)NC4CCCCC4)c(Cl)c3)c2c2c1OCCO2 [Example 29, 1-(2-chloro-4-((5-methoxy-2,3-dihydro-[1,4]dioxino[2,3-f]quinazolin-10-yl)amino)phenyl)-3-cyclohexylurea] | 500 to 5000 nM |
| COc1cc2ncnc(Nc3ccc(NC(=O)NCCC(C)C)c(Cl)c3)c2c2c1OCCO2 [Example 30, 1-(2-chloro-4-((5-methoxy-2,3-dihydro-[1,4]dioxino[2,3-f]quinazolin-10-yl)amino)phenyl)-3-isopentylurea] | < 50 nM |
| O=C(Nc1ccc(Oc2ncnc3cc(OCCCN4CCOCC4)c4c(c23)OCCO4)cc1)Nc1cccc2ccccc12 [Example 31, 1-(4-((5-(3-morpholinopropoxy)-2,3-dihydro-[1,4]dioxino[2,3-f]quinazolin-10-yl)oxy)phenyl)-3-(naphthalen-1-yl)urea] | < 50 nM |
| COc1cc2ncnc(Oc3ccc(NC(=O)NC4CCCC4)c(Cl)c3)c2c2c1OCCO2 [Example 32, 1-(2-chloro-4-((5-methoxy-2,3-dihydro-[1,4]dioxino[2,3-f]quinazolin-10-yl)oxy)phenyl)-3-cyclopentylurea] | < 50 nM |

The remaining lines, values ahead:

| IC50 | Structure (SMILES) |
| --- | --- |
| < 50 nM | COc1cc2ncnc(Nc3ccc(NC(=O)NC4CC4)c(Cl)c3)c2c2c1OCCO2 [Example 2, 1-(2-chloro-4-((5-methoxy-2,3-dihydro-[1,4]dioxino[2,3-f]quinazolin-10-yl)amino)phenyl)-3-cyclopropylurea] |
| < 50 nM | COc1cccc(NC(=O)Nc2ccc(Nc3ncnc4cc(OC)c5c(c34)OCCO5)cc2Cl)c1 [Example 4, 1-(2-chloro-4-((5-methoxy-2,3-dihydro-[1,4]dioxino[2,3-f]quinazolin-10-yl)amino)phenyl)-3-(3-methoxyphenyl)urea] |
| > 5000 nM | COc1cc2ncnc(Nc3ccc(NC(=O)Nc4ccccn4)c(Cl)c3)c2c2c1OCCO2 [Example 5, 1-(2-chloro-4-((5-methoxy-2,3-dihydro-[1,4]dioxino[2,3-f]quinazolin-10-yl)amino)phenyl)-3-(pyridin-2-yl)urea] |
| 50 to 500 nM | COc1cc2ncnc(Nc3ccc(NC(=O)Nc4ccccc4)c(Cl)c3)c2c2c1OCCO2 [Example 6, 1-(2-chloro-4-((5-methoxy-2,3-dihydro-[1,4]dioxino[2,3-f]quinazolin-10-yl)amino)phenyl)-3-phenylurea] |
| < 50 nM | COc1cc2ncnc(Nc3ccc(NC(=O)Nc4ccc(F)cc4)c(Cl)c3)c2c2c1OCCO2 [Example 7, 1-(2-chloro-4-((5-methoxy-2,3-dihydro-[1,4]dioxino[2,3-f]quinazolin-10-yl)amino)phenyl)-3-(4-fluorophenyl)urea] |
| 50 to 500 nM | COc1cc2ncnc(Nc3ccc(NC(=O)Nc4cc(C)no4)c(Cl)c3)c2c2c1OCCO2 [Example 8, 1-(2-chloro-4-((5-methoxy-2,3-dihydro-[1,4]dioxino[2,3-f]quinazolin-10-yl)amino)phenyl)-3-(3-methylisoxazol-5-yl)urea] |
| 50 to 500 nM | COc1cc2ncnc(Nc3ccc(NC(=O)NC(C)C)c(Cl)c3)c2c2c1OCCO2 [Example 9, 1-(2-chloro-4-((5-methoxy-2,3-dihydro-[1,4]dioxino[2,3-f]quinazolin-10-yl)amino)phenyl)-3-isopropylurea] |
| < 50 nM | COc1cc(NC(=O)Nc2ccc(Nc3ncnc4cc(OC)c5c(c34)OCCO5)cc2Cl)ccn1 [Example 10, 1-(2-chloro-4-((5-methoxy-2,3-dihydro-[1,4]dioxino[2,3-f]quinazolin-10-yl)amino)phenyl)-3-(2-methoxypyridin-4-yl)urea] |
| < 50 nM | COc1cc2ncnc(Nc3ccc(NC(=O)NC4CCC4)c(Cl)c3)c2c2c1OCCO2 [Example 27, 1-(2-chloro-4-((5-methoxy-2,3-dihydro-[1,4]dioxino[2,3-f]quinazolin-10-yl)amino)phenyl)-3-cyclobutylurea] |
